{"source": "patent US7666985B2", "about": "“HLA-A24-restricted cancer antigen peptides” (International Institute of Cancer Immunology, Inc., priority 2002, dated 2010)", "key": {"[1]": {"system": "RERF-LC-AI cells", "conditions": "PBMC effector cells stimulated with peptide, targets RERF-LC-AI (WT1+, HLA-A24+) versus WT1+/HLA-A2402- and WT1-/HLA-A24+ lung cancer lines (LK87, 11-18)", "experimental": "(§1) Peripheral blood mononuclear cells were separated from healthy donors positive for HLA-A2402, and were placed into wells of a 24-well plate at 4×10^6 cells/well. To the wells, the natural peptide of SEQ ID NO: 7 or the altered peptide of SEQ ID NO: 3 was added at a concentration of 10 μM, and the mixture was incubated for a week in a culture medium comprising 45% RPMI1640, 45% AIV, 10% inactivated human AB serum, 1× nonessential amino acids, 25 ng/ml 2-mercaptoethanol, […] streptomycin, and 50 U/ml penicillin. After the incubation, the cells were adjusted to 2×10^6 cells/well, which were used as responder cells hereafter. On the other hand, peripheral blood mononuclear cells separated from the same healthy donors were incubated together with 10 μM of either of these peptides for 4 hours to accomplish the pulsing with peptide, and then radiated at 30 Gy. The cells were adjusted to 4×10^6 cells/well, which were used as stimulator cells hereafter.\n(§2) The responder cells and the stimulator cells thus prepared were mixed together, and the mixture was added with IL-2 at 30 U/ml, and incubated. A similar stimulation of the responder cells with the stimulator cells was conducted three times with an interval of a week. The cytotoxic activity in those cells thus obtained was determined by ^51Cr release assay wherein the cytotoxic activity was determined by reacting the C1R-A*2402 cells positive for an HLA-A24 (Int. J. Cancer, 81, p 387, 1999) labeled with ^51Cr that were pulsed with the natural peptide of SEQ ID NO: 7 as target cells (T), and the cells stimulated with the natural peptide of SEQ ID NO: 7 or the altered peptide of SEQ ID NO: 3 as described above (effector cells)(E) at an E/T ratio of 10, 20 or 40. […] Further, a lung cancer cell line positive for WT1 and positive for an HLA-A24, RERF-LC-AI cells; a lung cancer cell line positive for WT1 and negative for an HLA-A2402, 11-18 cells; or a lung cancer cell line negative for WT1 and positive for an HLA-A24, 11-18 cells were used as target cells to determine the cytotoxic activities of the effector cells described above in a similar manner by ^51Cr release assay."}, "[2]": {"system": "C1R-A*2402 cells pulsed with the natural peptide of SEQ ID NO: 7", "conditions": "PBMC from HLA-A2402 positive healthy donors stimulated in vitro with 10 μM peptide; E/T ratio of 10, 20 or 40", "experimental": "as §1, §2"}, "[3]": {"system": "Jurkat-A2402/K^b cells pulsed with the natural or non-substituted peptide", "conditions": "for cross-reactivity of effector cells induced by the substituted peptide to the non-substituted peptide (cytotoxic activity): mice immunized with peptide M or N, targets pulsed with peptide M or N, with peptide H, or without any peptide", "experimental": "Cross-reactivity of the effector cells induced by the altered peptide to the natural peptide was tested. Effector cells induced by immunizing the mice with the altered form: peptide H (E) and target cells of the Jurkat-A2402/K^b cells pulsed with the natural form: peptide C (T) were combined and reacted at an E/T ratio of 80, and the cytotoxic activity was determined by ^51Cr release assay.\nCross-reactivity of the effector cells induced by the substituted peptide to the non-substituted peptide was tested. To effector cells induced by immunizing the mice with peptide M or N (E), target cells of the Jurkat-A2402/K^b cells pulsed with peptide M or N, with peptide H, or without any peptide (T) were reacted, and the cytotoxic activities of the effector cells were determined by ^51Cr release assay."}, "[4]": {"system": "Jurkat-A2402/K^b cells pulsed with the peptide", "assay": "CTL-inducing activity (immunogenicity) in HLA-A2402/K^b transgenic mouse, 51Cr release assay", "assay_type": "in vivo", "conditions": "for induction of specific CTLs (cytotoxic activity, % Specific Lysis): Reference 9: transgenic mouse (04-1 line) immunized with known HLA-A24-restricted cancer antigen peptide + helper peptide in IFA; for induction of specific CTLs (cytotoxic activity, % Specific Lysis) / immunogenicity (activity to induce CTLs; cytotoxic activity, % Specific Lysis): peptide-pulsed vs non-pulsed Jurkat-A2402/K^b targets; for immunogenicity (activity to induce CTLs; cytotoxic activity, % Specific Lysis): HLA-A2402/K^b transgenic mice (three per peptide) immunized s.c. with peptide + helper peptide in IFA, splenocytes stimulated in vitro 6 days, E/T ratio of 80", "experimental": "Specifically, HER-2/neu780-788 and helper peptide were adjusted to 40 mg/ml and 20 mg/ml, respectively, in DMSO and diluted with a physiological saline to 2 mg/ml and 1 mg/ml, respectively. They were mixed with an equal amount of Freund's incomplete adjuvant (Wako Pure Chemical Industries, Ltd.) using a glass syringe to prepare a water-in-oil emulsion. The resultant preparation (200 μl) was injected into a transgenic mouse (04-1 line) subcutaneously in the base of the tail for immunization. Seven days after the initiation of experiment, the spleen was removed and grounded on the frosted part of glass slide, and splenocytes were recovered and prepared. A portion of the splenocytes undergone hemolysis treatment with an ACK buffer (0.15 M NH4Cl, 10 mM KHCO3, 0.1 mM EDTA, pH 7.2-7.4) was exposed to X ray radiation (2,000 rad), pulsed with the above-mentioned peptide (100 μg/ml) for 1 hour, and seeded into a 24-well plate at 0.7×10^6/well. Non-radiated, non-peptide-pulsed splenocytes (7×10^6/well) were added together and stimulated again at 37° C. (final concentration of peptide, 1 μg/ml). In vitro stimulation was carried out for 6 days in […] of a culture solution (CTM culture solution) containing 10% FCS, 10 mM HEPES, 20 mM L-glutamine, 1 mM sodium pyruvate, 1 mM MEM nonessential amino acid, 1% MEM vitamin and 55 μM 2-mercaptoethanol in RPMI 1640 medium.\nOn the other hand, Jurkat-A2402/K^b cells prepared in Reference 8 were labeled with ^51Cr (3.7 MBq/10^6 cells) and pulsed with the peptide above at 100 μg/ml for one hour. The labeling was carried out over 2 hours, and 1 hour after initiation of labeling, peptide was added to make the final concentration 100 μg/ml. Cells that were not pulsed with peptide were prepared as control target cells.\nCTL-inducing activity was determined by ^51Cr release assay (J. Immunol., 159:4753, 1997), wherein the previously prepared transgenic mouse splenocyte preparation was added to said Jurkat-A2402/K^b cells as the target cells.\nImmunogenicity of each antigen peptide was evaluated using the HLA-A2402/K^b transgenic mouse as constructed in aforementioned References. For the evaluation of each peptide for its immunogenicity, three transgenic mice were immunized with one peptide.\nSpecifically, each antigen peptide and the helper peptide were adjusted to 40 mg/ml and 20 mg/ml, respectively, in DMSO, and diluted with a physiological saline to 2 mg/ml and 1 mg/ml, respectively. They were then mixed with an equal amount of Freund's incomplete adjuvant (IFA) using a glass syringe to prepare a water-in-oil emulsion. The resultant emulsion (200 μl) was injected into the HLA-A2402/K^b transgenic mouse subcutaneously in the base of the tail for immunization. Seven days after the initiation of experiment, the spleen was removed and grounded on the frosted part of glass slide, and splenocytes were recovered and prepared. A portion of the splenocytes undergone hemolysis treatment with an ACK buffer (0.15 M NH4Cl, 10 mM KHCO3, 0.1 mM EDTA, pH 7.2-7.4) was exposed to X ray radiation (2,000 rad), then pulsed with the above-mentioned peptide (100 μg/ml) for 1 hour, and seeded into a 24-well plate at 7×10^6/well. Simultaneously, non-radiated, non-peptide-pulsed splenocytes (7×10^5/well) were added together and stimulated in vitro at 37° C. for 6 days. The in vitro stimulation was carried out in RPMI1640 medium supplemented with 10% FCS, 10 mM HEPES, 20 mM L-glutamine, 1 mM sodium pyruvate, 1 mM MEM nonessential amino acids, 1% MEM vitamin and 55 μM 2-mercaptoethanol.\nThen, the test for cytotoxic activity was conducted according to the conventional manner. Jurkat-A2402/K^b cells (Reference 8), and Jurkat-A2402/K^b cells pulsed with the peptide were used as target cells (T). These cells were labeled with ^51Cr (3.7 MBq/10^6 cells) and pulsed with the peptide at 100 μg/ml for one hour (The labeling was carried out over 2 hours, and 1 hour after the initiation of labeling, the peptide was added)."}}, "note": "“Also recorded” adds a separate entry of the source. Like-named read-outs stand apart in the source and are kept apart here. Square brackets hold non-standard residues; d marks the D form. Ends that are not written are not given here. Abu = CC[C@H](N)C(=O)O"}
{"substance": "RVPGVAPTL [peptide B]", "values": [{"measurement": "cytotoxic activity of effector cells on lung cancer cell lines", "setting": "[1]", "result": "CTLs were induced"}, {"measurement": "cytotoxic activity of effector cells on lung cancer cell lines", "setting": "[1]; listed as SEQ ID NO: 7", "result": "specifically injured only the RERF-LC-AI cells"}, {"measurement": "CTL-inducing activity (cytotoxic activity)", "setting": "[2]", "result": "CTLs were induced"}]}
{"substance": "RYPSAQKKF [peptide N]", "values": [{"measurement": "cross-reactivity of effector cells induced by the substituted peptide to the non-substituted peptide (cytotoxic activity)", "setting": "[3]", "result": "exhibited a cytotoxic activity against all of the cells pulsed with the substituted peptides"}]}
{"substance": "HER-2/neu780-788: HLA-A24-restriced peptide derived from human tumor antigen HER-2/neu (PYVSRLLGI) [reference compound]", "values": [{"measurement": "induction of specific CTLs (cytotoxic activity, % Specific Lysis)", "setting": "[4]", "result": "induction of specific CTLs by stimulation with HER-2/neu780-788 was observed"}, {"measurement": "induction of specific CTLs (cytotoxic activity, % Specific Lysis)", "setting": "[4]; listed as HER2/neu780-788", "result": "specific CTLs were induced"}]}
{"substance": "CEA268-277: known HLA-A24-restricted cancer antigen peptide derived from CEA [reference compound]", "values": [{"measurement": "induction of specific CTLs (cytotoxic activity, % Specific Lysis)", "setting": "[4]", "result": "induction of specific CTLs by stimulation with these known HLA-A24-resticted cancer antigen peptides was observed; also recorded: specific CTLs were induced"}]}
{"substance": "QYRIHTHGVF [peptide D, natural peptide, positions 285 to 294 of human WT1]", "values": [{"measurement": "immunogenicity (activity to induce CTLs; cytotoxic activity, % Specific Lysis)", "setting": "[4]", "result": "no specific CTL was induced"}]}
{"substance": "Arg-Tyr-Pro-Ser-Abu-Gln-Lys-Lys-Phe (RYPS[Abu]QKKF) [peptide O, peptide H with cysteine at position 5 substituted with α-aminobutyric acid]", "values": [{"measurement": "immunogenicity (cytotoxic activity, % Specific Lysis)", "setting": "[4]; Example 5: HLA-A24 expressing transgenic mouse immunized with peptide, effector and target cells mixed at various E/T ratios", "result": "immunogenicity equivalent to the non-substituted peptide, peptide H; also recorded: specific CTLs were induced"}]}
{"substance": "MAGE-3195-203: known HLA-A24-restricted cancer antigen peptide derived from MAGE-3 [reference compound]", "values": [{"measurement": "induction of specific CTLs (cytotoxic activity, % Specific Lysis)", "setting": "[4]", "result": "induction of specific CTLs by stimulation with these known HLA-A24-resticted cancer antigen peptides was observed; also recorded: specific CTLs were induced"}]}
{"substance": "AYPGCNKRYF [peptide E, natural peptide, positions 326 to 335 of human WT1]", "values": [{"measurement": "immunogenicity (activity to induce CTLs; cytotoxic activity, % Specific Lysis)", "setting": "[4]", "result": "no specific CTL was induced"}]}
{"substance": "AYLPAVPSL [peptide I, altered peptide K, position 2 altered into tyrosine]", "values": [{"measurement": "immunogenicity (activity to induce CTLs; cytotoxic activity, % Specific Lysis)", "setting": "[4]", "result": "have a high immunogenicity; also recorded: specific CTLs were induced"}]}
{"substance": "RYPSCQKKF [peptide H]", "values": [{"measurement": "cross-reactivity of effector cells induced by the altered peptide to the natural peptide (cytotoxic activity)", "setting": "[3]; mice immunized with peptide H, targets pulsed with peptide H or natural peptide C, E/T ratio of 80", "result": "exhibited a cytotoxic activity against both cells pulsed with the altered and natural forms"}]}
{"substance": "ALLPAVPSL [peptide K, natural peptide, positions 10 to 18 of human WT1]", "values": [{"measurement": "immunogenicity (activity to induce CTLs; cytotoxic activity, % Specific Lysis)", "setting": "[4]", "result": "have no immunogenicity; also recorded: no specific CTL was induced"}]}
{"substance": "RYPSSQKKF [peptide M]", "values": [{"measurement": "cross-reactivity of effector cells induced by the substituted peptide to the non-substituted peptide (cytotoxic activity)", "setting": "[3]", "result": "exhibited a cytotoxic activity against all of the cells pulsed with the substituted peptides"}]}
{"substance": "CEA652-660: known HLA-A24-restricted cancer antigen peptide derived from CEA [reference compound]", "values": [{"measurement": "induction of specific CTLs (cytotoxic activity, % Specific Lysis)", "setting": "[4]", "result": "induction of specific CTLs by stimulation with these known HLA-A24-resticted cancer antigen peptides was observed; also recorded: specific CTLs were induced"}]}
{"substance": "RYFPNAPYL [peptide F]", "values": [{"measurement": "immunogenicity (activity to induce CTLs; cytotoxic activity, % Specific Lysis)", "setting": "[4]", "result": "have a high immunogenicity; also recorded: specific CTLs were induced"}]}
{"substance": "RWPSCQKKF [peptide C, natural peptide, positions 417 to 425 of human WT1]", "values": [{"measurement": "immunogenicity (activity to induce CTLs; cytotoxic activity, % Specific Lysis)", "setting": "[4]", "result": "have no immunogenicity; also recorded: no specific CTL was induced"}]}
{"substance": "NQMNLGATL [peptide L, natural peptide, positions 239 to 247 of human WT1]", "values": [{"measurement": "immunogenicity (activity to induce CTLs; cytotoxic activity, % Specific Lysis)", "setting": "[4]", "result": "have no immunogenicity; also recorded: no specific CTL was induced"}]}
{"substance": "NYMNLGATL [peptide J, altered peptide L, position 2 altered into tyrosine]", "values": [{"measurement": "immunogenicity (activity to induce CTLs; cytotoxic activity, % Specific Lysis)", "setting": "[4]", "result": "have a high immunogenicity; also recorded: specific CTLs were induced"}]}
